Patent US20250051820A1 (priority 2021, published 2025)
Read-outs that look alike come from different tables or passages of the source.

Tests used:
[1] = test system: High Five cells
Description: High Five cells (Thermo Fisher Scientific, Express Five™ SFM) were seeded at a seeding concentration of 1×10^6 cells/mL so as to satisfy a culture scale of 30 mL. Twenty-four hours after the initiation of culture, calcium chloride was added so as to increase a final concentration by 1, 10 and 100 mM. Here, a calcium chloride-free group was used as a control. From day 3 to 5, the cell culture solution was sampled and stained with a 0.2% trypan blue solution. The numbers of viable cells and dead cells were counted by a hemocytometer. From the total cell count and the viable-cell count, the rate of viable cells was calculated.

[2] = test system: High Five cells; conditions: for VP1 band intensity (relative value): MOI=0.1, day 4 supernatant, negative control = 100%
Description: High Five cells (Thermo Fisher Scientific, Express Five™ SFM) were seeded at a seeding concentration of 1×10^6 cells/mL so as to satisfy a culture scale of 30 mL.

[3] = test system: High Five cells; conditions: MOI=0.5, day 4 supernatant; for improvement of the yield of the recombinant protein: relative to absence of calcium chloride
Description: A High Five cell culture solution in which cells were seeded at a seeding concentration of 1×10^6 cells/mL so as to satisfy a culture scale of 30 mL, was infected with a recombinant baculovirus prepared by integrating a gene sequence of a norovirus VP1 protein, at MOI=0.5. On Day 1 after the initiation of culture, calcium chloride was added so as to increase a final concentration by 2.5, 25, 250, 500 and 1 000 μM, and then, the cell culture was continued. On day 3, Benzonase (Merck) was added so as to be a final concentration of 50 U/mL and […] protease inhibitor tablets (Thermo Fisher Scientific) was added, and then, the cell culture was continued. On day 4, the culture supernatant was collected in the same manner as in Example 2 and subjected to Western Blotting.
For Western Blotting, after electrophoresis was carried out in the same manner as in Example 1, a transfer reaction was carried out from the gel to PVDF membrane (Merck) by a semi-dry transfer device (ATTO CORPORATION). After the transfer reaction, the PVDF membrane was soaked in a 10% skim milk-containing TBS and incubated at room temperature for two hours. After the PVDF membrane was washed three times with an appropriate amount of TBS and soaked in an anti-norovirus VP1 protein antibody (manufactured by the inventors) diluted with a 1% skim milk-containing TBST and incubated at 4° C. for from 18 to 20 hours. The PVDF membrane was washed five times with an appropriate amount of TBST, soaked in a HRP-labeled anti-mouse antibody (Jackson Immuno Research Laboratories) diluted with 1% skim milk-containing TBST, and incubated at room temperature for one hour. The PVDF membrane was washed five times with an appropriate amount of TBST and allowed to develop color with Western Lightning-Plus ECL (Perkin Elmer). The PVDF membrane was photographed by an image analyzer (Bio-Rad) and subjected to densitometric analysis.
Densitometric analysis was carried out in the same manner as in Example 1, and the relative amount of VP1 to the condition in the absence of calcium chloride was calculated.

## [Ca+2].[Cl-].[Cl-] [calcium chloride]
[1]; High Five cells, day 3 to 5
  concentration of calcium chloride that is not cytotoxic: ≤ 1000 µM
[1]; calcium chloride final concentration increased by 1 mM, added 24 h after initiation of culture, day 3 to 5, versus calcium chloride-free control
  viable cell rate: the same as in the control
[1]; calcium chloride final concentration increased by 10 mM, day 3
  viable cell rate: low
[1]; calcium chloride final concentration increased by 100 mM, day 3
  viable cell rate: low
[2]; 25 μM calcium chloride added 0 hr after infection
  VP1 band intensity (relative value): 102%
[2]; 25 μM calcium chloride added 24 hours after the initiation of culture, relative to absence of calcium chloride
  improvement of the yield of a protein of interest: about 108
[2]; 25 μM calcium chloride added 24 hr after infection
  VP1 band intensity (relative value): 111%
[2]; 25 μM calcium chloride added 48 hr after infection
  VP1 band intensity (relative value): 102%
[3]; calcium chloride 25 μM added on Day 1
  improvement of the yield of the recombinant protein: about 40%
[3]; calcium chloride 250 μM added on Day 1
  improvement of the yield of the recombinant protein: about 40%
[3]; calcium chloride 500 μM added on Day 1
  yield of the recombinant protein: seems to decrease
[3]; calcium chloride 1 000 μM added on Day 1
  yield of the recombinant protein: seems to decrease
